From ChEMBL document CHEMBL3045421, “5-Nitro-heteroarylidene analogs of 2-thiazolylimino-4-thiazolidinones as a novel series of antibacterial agents” (2013) come the findings set out here.

In brackets after ≈: the same amount, converted by molar mass.

Holding throughout (type): functional
In assay [1] the test system is Helicobacter pylori. As to the kind of experiment: Antibacterial activity against Helicobacter pylori strain 1 assessed as diameter of growth inhibition zone at 32 ug/disk after 3-5 days by filter paper disk diffusion method. The conditions noted are these: read-out: DIZ.
Assay [2] deals with Helicobacter pylori. As to the kind of experiment: Antibacterial activity against Helicobacter pylori strain 1 assessed as diameter of growth inhibition zone at 16 ug/disk after 3-5 days by filter paper disk diffusion method. The settings on record: read-out: DIZ. Background: In agar diffusion tests the substance spreads into inoculated agar from a disc or well.
In assay [3] the test system is Helicobacter pylori. As to the kind of experiment: Antibacterial activity against Helicobacter pylori strain 1 assessed as diameter of growth inhibition zone at 8 ug/disk after 3-5 days by filter paper disk diffusion method. The conditions noted are these: read-out: DIZ.
In another assay the test system is Pseudomonas aeruginosa. In words: microbe, parasite or virus in culture. The conditions noted are these: ATCC 9027, 24 h.
The subject of the next assay is Klebsiella pneumoniae. In words: microbe, parasite or virus in culture. The conditions noted are these: ATCC 10031, 24 h.
The test system of a further assay is Escherichia coli. In words: microbe, parasite or virus in culture. The settings on record: ATCC 8739, 24 h.
Another assay concerns Bacillus subtilis. As to the kind of experiment: microbe, parasite or virus in culture. The conditions noted are these: ATCC 6633, 24 h.
For assay [4], the system named is Staphylococcus epidermidis. As to the kind of experiment: microbe, parasite or virus in culture. The settings on record: ATCC 12228, 24 h.
Description: Antibacterial activity against Staphylococcus epidermidis ATCC 12228 assessed as growth inhibition after 24 hr by microdilution method
The subject of a further assay is Staphylococcus aureus. In words: microbe, parasite or virus in culture. The conditions noted are these: ATCC 6538p, 24 h.
Assay [5] relates to Helicobacter pylori. In words: Antibacterial activity against Helicobacter pylori strain 3 assessed as diameter of growth inhibition zone at 64 ug/disk after 3-5 days by filter paper disk diffusion method. The settings on record: read-out: DIZ.
The subject of assay [6] is Helicobacter pylori. As to the kind of experiment: Antibacterial activity against Helicobacter pylori strain 3 assessed as diameter of growth inhibition zone at 32 ug/disk after 3-5 days by filter paper disk diffusion method. The settings on record: read-out: DIZ.
The subject of assay [7] is Helicobacter pylori. In words: Antibacterial activity against Helicobacter pylori strain 3 assessed as diameter of growth inhibition zone at 16 ug/disk after 3-5 days by filter paper disk diffusion method. The conditions noted are these: read-out: DIZ.
Assay [8] deals with Helicobacter pylori. In words: Antibacterial activity against Helicobacter pylori strain 3 assessed as diameter of growth inhibition zone at 8 ug/disk after 3-5 days by filter paper disk diffusion method. The conditions noted are these: read-out: DIZ.
Assay [9] relates to Helicobacter pylori. In words: Antibacterial activity against Helicobacter pylori strain 2 assessed as diameter of growth inhibition zone at 64 ug/disk after 3-5 days by filter paper disk diffusion method. The settings on record: read-out: DIZ.
The test system of assay [10] is Helicobacter pylori. As to the kind of experiment: Antibacterial activity against Helicobacter pylori strain 2 assessed as diameter of growth inhibition zone at 32 ug/disk after 3-5 days by filter paper disk diffusion method. The conditions noted are these: read-out: DIZ.
Assay [11] has as its system Helicobacter pylori. In words: Antibacterial activity against Helicobacter pylori strain 2 assessed as diameter of growth inhibition zone at 16 ug/disk after 3-5 days by filter paper disk diffusion method. The settings on record: read-out: DIZ.
Assay [12] concerns Helicobacter pylori. In words: Antibacterial activity against Helicobacter pylori strain 2 assessed as diameter of growth inhibition zone at 8 ug/disk after 3-5 days by filter paper disk diffusion method. The settings on record: read-out: DIZ.
Assay [13] deals with Helicobacter pylori. In words: Antibacterial activity against Helicobacter pylori strain 1 assessed as diameter of growth inhibition zone at 64 ug/disk after 3-5 days by filter paper disk diffusion method. The conditions noted are these: read-out: DIZ.

Description for Bacillus subtilis: Antibacterial activity against Bacillus subtilis ATCC 6633 assessed as growth inhibition after 24 hr by microdilution method
Description for Escherichia coli: Antibacterial activity against Escherichia coli ATCC 8739 assessed as growth inhibition after 24 hr by microdilution method
Description for Klebsiella pneumoniae: Antibacterial activity against Klebsiella pneumoniae ATCC 10031 assessed as growth inhibition after 24 hr by microdilution method
Description for Pseudomonas aeruginosa: Antibacterial activity against Pseudomonas aeruginosa ATCC 9027 assessed as growth inhibition after 24 hr by microdilution method
Description for Staphylococcus aureus: Antibacterial activity against Staphylococcus aureus ATCC 6538p assessed as growth inhibition after 24 hr by microdilution method

As to `O=C1N/C(=N\c2nccs2)S/C1=C\c1ccc([N+](=O)[O-])o1`, the zone of inhibition at 32 µg/disc in the assay with Helicobacter pylori [1], in the assay with Helicobacter pylori [6] and in the assay with Helicobacter pylori [10] was greater than 50 mm in each case. Moreover, the zone of inhibition at 16 µg/disc in the assay on Helicobacter pylori [2], in the assay on Helicobacter pylori [7] and in the assay on Helicobacter pylori [11] was greater than 50 mm in each case. Moreover, the zone of inhibition at 8 µg/disc in the assay with Helicobacter pylori [3], with Helicobacter pylori [8] and in the assay on Helicobacter pylori [12] was greater than 50 mm each time. The MIC with Pseudomonas aeruginosa amounted to 0.39 µg/mL (≈ 1.21 µM); with Klebsiella pneumoniae, 1.56 µg/mL (≈ 4.84 µM); against Escherichia coli it was 1.56 µg/mL (≈ 4.84 µM); with Bacillus subtilis it was 0.19 µg/mL (≈ 0.589 µM); in assay [4], 0.006 µg/mL (≈ 0.0186 µM); against Staphylococcus aureus, 0.97 µg/mL (≈ 3.01 µM). Further, the zone of inhibition at 64 µg/disc in the assay with Helicobacter pylori [5], in the assay with Helicobacter pylori [9] and in the assay on Helicobacter pylori [13] was greater than 50 mm in each case.
`O=C1N/C(=N\c2nc(-c3ccccc3)cs2)S/C1=C\c1ccc([N+](=O)[O-])o1`: the results for the zone of inhibition at 32 µg/disc in the assay on Helicobacter pylori [1], with Helicobacter pylori [6] and with Helicobacter pylori [10] were 15 mm, 18 mm and 18 mm, respectively. Besides, the zone of inhibition at 16 µg/disc with Helicobacter pylori [2] amounted to 13 mm; in the assay on Helicobacter pylori [7], 15 mm; in the assay with Helicobacter pylori [11], 12 mm. Moreover, the zone of inhibition at 8 µg/disc in the assay with Helicobacter pylori [3] was found to be 10 mm; in the assay on Helicobacter pylori [8], 13 mm; with Helicobacter pylori [12], 10 mm. For the same molecule, the MIC against Pseudomonas aeruginosa was greater than 100 µg/mL; against Klebsiella pneumoniae it was greater than 100 µg/mL; against Escherichia coli, greater than 100 µg/mL; in the assay with Bacillus subtilis, 50 µg/mL (≈ 125 µM); in assay [4], 25 µg/mL (≈ 62.7 µM); with Staphylococcus aureus it was 50 µg/mL (≈ 125 µM). Also, the zone of inhibition at 64 µg/disc in the assay on Helicobacter pylori [5] was found to be 20 mm; in the assay on Helicobacter pylori [9] it was 23 mm; with Helicobacter pylori [13], 20 mm.
As for `COc1ccc(-c2csc(/N=C3\NC(=O)/C(=C/c4ccc([N+](=O)[O-])o4)S3)n2)cc1`, the zone of inhibition at 32 µg/disc was determined as 12 mm with Helicobacter pylori [1], 19 mm in the assay with Helicobacter pylori [6] and 19 mm with Helicobacter pylori [10]. Further, the zone of inhibition at 16 µg/disc in the assay with Helicobacter pylori [2] was determined as 10 mm; in the assay on Helicobacter pylori [7], 16 mm; in the assay on Helicobacter pylori [11] it was 17 mm. The zone of inhibition at 8 µg/disc with Helicobacter pylori [3] was no more than 6 mm; in the assay with Helicobacter pylori [8], 12 mm; in the assay with Helicobacter pylori [12], 15 mm. Moreover, the MIC against Pseudomonas aeruginosa is 100 µg/mL (≈ 233 µM); in the assay with Klebsiella pneumoniae it was greater than 100 µg/mL; in the assay on Escherichia coli, greater than 100 µg/mL; in the assay on Bacillus subtilis it was 12.5 µg/mL (≈ 29.2 µM); in [4] it was 12.5 µg/mL (≈ 29.2 µM); against Staphylococcus aureus, 25 µg/mL (≈ 58.3 µM). Also, the zone of inhibition at 64 µg/disc turned out to be 26 mm in the assay with Helicobacter pylori [5], 20 mm in the assay on Helicobacter pylori [9] and 14 mm with Helicobacter pylori [13].
As to `O=C1N/C(=N\c2nc3ccccc3s2)S/C1=C\c1ccc([N+](=O)[O-])o1`, the zone of inhibition at 32 µg/disc was 28 mm in the assay with Helicobacter pylori [1], 30 mm in the assay on Helicobacter pylori [6] and 26 mm in the assay with Helicobacter pylori [10]. Moreover, the zone of inhibition at 16 µg/disc is 24 mm in the assay with Helicobacter pylori [2], 28 mm in the assay with Helicobacter pylori [7] and 24 mm with Helicobacter pylori [11]. Besides, the results for the zone of inhibition at 8 µg/disc with Helicobacter pylori [3], with Helicobacter pylori [8] and with Helicobacter pylori [12] were 20 mm, 25 mm and 22 mm, respectively. Further, the MIC is greater than 100 µg/mL against Pseudomonas aeruginosa; 6.25 µg/mL (≈ 16.8 µM) in the assay with Klebsiella pneumoniae; 3.12 µg/mL (≈ 8.39 µM) against Escherichia coli; 0.39 µg/mL (≈ 1.05 µM) against Bacillus subtilis; 0.39 µg/mL (≈ 1.05 µM) in assay [4]; 0.97 µg/mL (≈ 2.6 µM) against Staphylococcus aureus. Also, the zone of inhibition at 64 µg/disc in the assay with Helicobacter pylori [5] amounted to 34 mm; in the assay on Helicobacter pylori [9], 30 mm; in the assay with Helicobacter pylori [13], 33 mm.
Turning to `O=C1N/C(=N\c2nccs2)S/C1=C\c1ccc([N+](=O)[O-])s1`, the zone of inhibition at 32 µg/disc is 42 mm with Helicobacter pylori [1], 40 mm in the assay with Helicobacter pylori [6] and 30 mm in the assay with Helicobacter pylori [10]. In addition, the zone of inhibition at 16 µg/disc with Helicobacter pylori [2] was determined as 40 mm; in the assay with Helicobacter pylori [7], 35 mm; with Helicobacter pylori [11], 28 mm. Further, the values for the zone of inhibition at 8 µg/disc in the assay on Helicobacter pylori [3], in the assay on Helicobacter pylori [8] and in the assay with Helicobacter pylori [12] were 36 mm, 33 mm and 25 mm, respectively. Besides, the MIC is greater than 100 µg/mL in the assay with Pseudomonas aeruginosa; greater than 100 µg/mL in the assay on Klebsiella pneumoniae; greater than 100 µg/mL against Escherichia coli; 0.78 µg/mL (≈ 2.3 µM) with Bacillus subtilis; 0.39 µg/mL (≈ 1.15 µM) in [4]; 1.56 µg/mL (≈ 4.61 µM) against Staphylococcus aureus. Moreover, the zone of inhibition at 64 µg/disc came to 45 mm in the assay with Helicobacter pylori [5], 34 mm in the assay on Helicobacter pylori [9] and 45 mm in the assay on Helicobacter pylori [13].
